Source: patent US20260217706A1, “HETEROCYCLIC COMPOUNDS, PREPARATION METHOD THEREFOR AND USE THEREOF” (GUANGZHOU YUFAN NANTU BIOTECHNOLOGIES CO., LTD, priority 2023, published 2026)

Columns and labels:
[1] = test system: anti-CD3 activated human PBMCs; assay: Effect of compounds on the level of IL-2 secretion by anti-CD3 activated human PBMCs (IL-2 ELISA); type: cell-based; conditions: compound concentration at which fold change in IL-2 = 5; hPBMCs, CD3 antibody 2 μg/mL, 48 h, compound from 3 μM
Protocol: 2. Inoculate the resuspended cells into a 96-well cell culture plate at 200 ul/well of cell suspension, and incubate in a 37° C. cell incubator for 1 h;
3. Adjust the compound concentration with DMSO, starting at a final concentration of 3 μM, and perform a 3-fold dilution sequentially for 10 concentration gradients, with an additional DMSO control well set up; and
4. Adjust the CD3 antibody to an appropriate concentration to achieve a final concentration of 2 μg/mL, mix thoroughly, and incubate in a 37° C. cell incubator for 48h.
5. After 48 h, centrifuge at 1500 rpm for 5 min to collect the supernatant of the culture medium for the human IL-2 ELISA test.
The OD values obtained from the ELISA test are converted into the fold change (FC) in IL-2 concentration. […] The EC50 is calculated using GraphPad Prism. When the fold change=5, the corresponding compound concentration is CFC=5 (in nM).

CBL-B protein = CBL-B protein (Homo sapiens, UniProt Q13191); assay: CBL-B binding experiment (Streptavidin-Tb cryptate / Ligand L1 displacement); conditions: 8 nM CBL-B protein, 25° C., 60 minutes; Ki=Relative IC50/2
Outline: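 Compounds in a 10-point DMSO series met 8 nM CBL-B protein in HEPES pH 7.5/NaCl/Triton/TCEP/BSA buffer at 25° C. for 60 min. A further 60 min at room temperature preceded the luminescence read, normalised to no-protein and DMSO wells. Ki was taken as relative IC50 divided by 2.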

Chain of CBL-B protein (Q13191 whole entry): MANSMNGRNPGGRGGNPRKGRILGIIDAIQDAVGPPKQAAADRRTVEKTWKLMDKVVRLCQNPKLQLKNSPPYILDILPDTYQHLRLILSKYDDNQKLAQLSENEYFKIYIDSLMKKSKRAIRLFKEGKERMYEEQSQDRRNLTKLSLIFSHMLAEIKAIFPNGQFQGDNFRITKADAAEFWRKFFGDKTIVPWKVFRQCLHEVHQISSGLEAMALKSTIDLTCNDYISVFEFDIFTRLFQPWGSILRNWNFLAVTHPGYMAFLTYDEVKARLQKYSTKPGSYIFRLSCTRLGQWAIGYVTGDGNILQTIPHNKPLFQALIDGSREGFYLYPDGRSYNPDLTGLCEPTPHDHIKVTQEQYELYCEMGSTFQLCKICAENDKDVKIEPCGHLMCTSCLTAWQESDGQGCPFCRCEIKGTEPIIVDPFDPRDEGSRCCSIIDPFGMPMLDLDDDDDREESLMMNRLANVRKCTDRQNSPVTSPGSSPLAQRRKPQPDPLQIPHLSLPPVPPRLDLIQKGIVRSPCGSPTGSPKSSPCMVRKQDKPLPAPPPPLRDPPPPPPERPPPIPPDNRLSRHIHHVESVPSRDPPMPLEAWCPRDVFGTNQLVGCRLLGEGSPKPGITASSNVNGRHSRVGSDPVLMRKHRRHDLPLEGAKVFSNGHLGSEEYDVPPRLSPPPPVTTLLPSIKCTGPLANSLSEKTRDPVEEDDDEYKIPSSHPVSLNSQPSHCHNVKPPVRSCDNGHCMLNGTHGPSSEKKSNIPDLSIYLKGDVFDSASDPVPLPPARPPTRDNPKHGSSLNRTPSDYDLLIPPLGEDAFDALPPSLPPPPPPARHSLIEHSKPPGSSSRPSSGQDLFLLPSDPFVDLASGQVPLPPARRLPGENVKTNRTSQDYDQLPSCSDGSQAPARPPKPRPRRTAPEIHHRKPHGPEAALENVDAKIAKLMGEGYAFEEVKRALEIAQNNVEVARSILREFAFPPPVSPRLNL

SMILES	IL-2 CFC=5/nM [1]	Ki (CBL-B protein)
Cn1cnnc1[C@]1(c2cccc(-n3cc(C(F)(F)F)c4cc(CN5CCC[C@H]6C[C@H]65)[nH]c4c3=O)c2)C[C@H](C)C1 [Compound T055, 2-(((1R,6S)-2-azabicyclo [4.1.0]heptan-2-yl)methyl)-6-(3-((1s,3S)-3-methyl-1-(4-methyl-4H-1,2,4-triazol-3-yl)cyclobutyl)phenyl)-4-(trifluoromethyl)-1,6-dihydro-7H-pyrrolo[2,3-c]pyridin-7-one]	<500 nM	< 50 nM
Cn1cnnc1[C@]1(c2cccc(-n3cc(C(F)(F)F)c4cc(CN5CCC[C@@H]6C[C@@H]65)[nH]c4c3=O)c2)C[C@H](C)C1 [Compound T056, 2-(((1 S,6R)-2-azabicyclo [4.1.0]heptan-2-yl)methyl)-6-(3-((1s,3R)-3-methyl-1-(4-methyl-4H-1,2,4-triazol-3-yl)cyclobutyl)phenyl)-4-(trifluoromethyl)-1,6-dihydro-7H-pyrrolo[2,3-c]pyridin-7-one]	<500 nM	< 50 nM
C[C@H]1CCCN(Cc2cc3c(C(F)(F)F)cn(-c4cccc([C@H](c5nncn5C)C5CCC5)c4)c(=O)c3[nH]2)C1 [Compound T060, 6-(3-((R)-cyclobutyl (4-methyl-4H-1,2,4-triazol-3-yl)methyl)phenyl)-2-(((S)-3-methylpiperidin-1-yl)methyl)-4-(trifluoromethyl)-1,6-dihydro-7H-pyrrolo[2,3-c]pyridin-7-one]	<500 nM	< 50 nM
CO[C@H]1C[C@](c2cccc(-n3cc(C(F)(F)F)c4cc(CNC5(C)CCC5)[nH]c4c3=O)c2)(c2nncn2C)C1 [Compound T066, 6-(3-((1r,3r)-3-methoxy-1-(4-methyl-4H-1,2,4-triazol-3-yl)cyclobutyl)phenyl)-2-(((1-methylcyclobutyl)amino)methyl)-4-(trifluoromethyl)-1,6-dihydro-7H-pyrrolo[2,3-c]pyridin-7-one]	<500 nM	< 50 nM
CO[C@H]1C[C@@](c2cccc(-n3cc(C(F)(F)F)c4cc(CNC5(C)CCC5)[nH]c4c3=O)c2)(c2nncn2C)C1 [Compound T067, 6-(3-((1s,3s)-3-methoxy-1-(4-methyl-4H-1,2,4-triazol-3-yl)cyclobutyl)phenyl)-2-(((1-methylcyclobutyl)amino)methyl)-4-(trifluoromethyl)-1,6-dihydro-7H-pyrrolo[2,3-c]pyridin-7-one]	<500 nM	< 50 nM
CCN(Cc1cc2c(C(F)(F)F)cn(-c3cccc([C@]4(c5nncn5C)C[C@@H](C)C4)c3)c(=O)c2[nH]1)CC(C)C [Compound T069, 2-((ethyl(isobutyl)amino)methyl)-6-(3-((1s,3s)-3-methyl-1-(4-methyl-4H-1,2,4-triazol-3-yl)cyclobutyl)phenyl)-4-(trifluoromethyl)-1,6-dihydro-7H-pyrrolo[2,3-c]pyridin-7-one]	<500 nM	< 50 nM
C[C@H]1CCCN(Cc2cc3c(C(F)(F)F)cn(-c4cccc(C5(c6nncn6C)CC(F)C5)c4)c(=O)c3[nH]2)C1 (stereo partly drawn) [Compound T070, 6-[3-[3-fluoro-1-(4-methyl-1,2,4-triazol-3-yl)cyclobutyl]phenyl]-2-[[(3S)-3-methyl-1-piperidyl]methyl]-4-(trifluoromethyl)-1H-pyrrolo[2,3-c]pyridin-7-one]	<500 nM	< 50 nM
C[C@H]1CCCN(Cc2cc3c(C(F)(F)F)cn(-c4cccc([C@]5(c6nncn6C)C[C@@H](F)C5)c4)c(=O)c3[nH]2)C1 [Compound T071, 6-[3-[3-fluoro-1-(4-methyl-1,2,4-triazol-3-yl)cyclobutyl]phenyl]-2-[[(3S)-3-methyl-1-piperidyl]methyl]-4-(trifluoromethyl)-1-H-pyrrolo[2,3-c]pyridin-7-one]	<500 nM	< 50 nM
C[C@H]1CCCN(Cc2cc3c(C4CC4)cn(-c4cccc(C5(Cc6nncn6C)CC(F)(F)C5)c4)c(=O)c3[nH]2)C1 [Compound T077, 4-cyclopropyl-6-[3-[3,3-difluoro-1-[(4-methyl-1,2,4-triazol-3-yl)methyl]cyclobutyl]phenyl]-2-[[(3S)-3-methyl-1-piperidyl]methyl]-1H-pyrrolo[2,3-c]pyridin-7-one]	<500 nM	< 50 nM
Cn1cnnc1C1(c2cccc(-n3cc(C(F)(F)F)c4cc(CN5CCC[C@@H](CC#N)C5)[nH]c4c3=O)c2)CCC1 [Compound T080, (S)-2-(1-((6-(3-(1-(4-methyl-4H-1,2,4-triazol-3-yl)cyclobutyl)phenyl)-7-oxo-4-(trifluoromethyl)-6,7-dihydro-1H-pyrrolo[2,3-c]pyridin-2-yl)methyl)piperidin-3-yl)acetonitrile]	<500 nM	< 50 nM
C[C@H]1CCCN(Cc2cc3c(C(F)(F)F)cn(-c4cccc(C5(c6nncn6C)CC6(CC6)C5)c4)c(=O)c3[nH]2)C1 [Compound T084, 2-[[(3S)-3-methyl-1-piperidyl]methyl]-6-[3-[5-(4-methyl-1,2,4-triazol-3-yl)spiro[2.3]hexan-5-yl]phenyl]-4-(trifluoromethyl)-1H-pyrrolo[2,3-c]pyridin-7-one]	<500 nM	< 50 nM
CC=C1CC(c2cccc(-n3cc(C(F)(F)F)c4cc(CN5CCC[C@H](C)C5)[nH]c4c3=O)c2)(c2nncn2C)C1 (stereo partly drawn) [Compound T085, 6-[3-[3-ethylidene-1-(4-methyl-1,2,4-triazol-3-yl)cyclobutyl]phenyl]-2-[[(3S)-3-methyl-1-piperidyl]methyl]-4-(trifluoromethyl)-1H-pyrrolo[2,3-c]pyridin-7-one]	<500 nM	< 50 nM
Cn1cnnc1C1(c2cccc(-n3cc(C(F)(F)F)c4cc(CN5C[C@H]6CCCC[C@H]6C5)[nH]c4c3=O)c2)CCC1 [Compound T086, 2-[[(3aS,7aR)-1,3,3a,4,5,6,7,7a-octahydroisoindol-2-yl]methyl]-6-[3-[1-(4-methyl-1,2,4-triazol-3-yl)cyclobutyl]phenyl]-4-(trifluoromethyl)-1H-pyrrolo[2,3-c]pyridin-7-one]	<500 nM	< 50 nM
Cn1cnnc1[C@]1(c2cccc(-n3cc(C(F)(F)F)c4cc(CN5C[C@@H]6CC[C@@H](C6)C5)[nH]c4c3=O)c2)C[C@H](C)C1 [Compound T087, 2-((3-azabicyclo[3.2.1]octan-3-yl)methyl)-6-(3-((1s,3s)-3-methyl-1-(4-methyl-4H-1,2,4-triazol-3-yl)cyclobutyl)phenyl)-4-(trifluoromethyl)-1,6-dihydro-7H-pyrrolo[2,3-c]pyridin-7-one]	<500 nM	< 50 nM
Cn1cnnc1[C@]1(c2cccc(-n3cc(C(F)(F)F)c4cc(CN5CCCC6(CC6)C5)[nH]c4c3=O)c2)C[C@H](C)C1 [Compound T088, 2-((5-azaspiro[2.5]octan-5-yl)methyl)-6-(3-((1s,3s)-3-methyl-1-(4-methyl-4H-1,2,4-triazol-3-yl)cyclobutyl)phenyl)-4-(trifluoromethyl)-1,6-dihydro-7H-pyrrolo[2,3-c]pyridin-7-one]	<500 nM	< 50 nM
Cn1cnnc1C1(c2cccc(-n3cc(C(F)(F)F)c4cc(CNCCCC(F)(F)F)[nH]c4c3=O)c2)CCC1 [Compound T091, 6-[3-[1-(4-methyl-1,2,4-triazol-3-yl)cyclobutyl]phenyl]-2-[(4,4,4-trifluorobutylamino)methyl]-4-(trifluoromethyl)-1H-pyrrolo[2,3-c]pyridin-7-one]	<500 nM	< 50 nM
CC[C@H]1C[C@@](c2cccc(-n3cc(C(F)(F)F)c4cc(CN5CCC[C@H](C)C5)[nH]c4c3=O)c2)(c2nncn2C)C1 [Compound T092, 6-(3-((1r,3R)-3-ethyl-1-(4-methyl-4H-1,2,4-triazol-3-yl)cyclobutyl)phenyl)-2-(((S)-3-methylpiperidin-1-yl)methyl)-4-(trifluoromethyl)-1,6-dihydro-7H-pyrrolo[2,3-c]pyridin-7-one]	<500 nM	< 50 nM
CC[C@H]1C[C@](c2cccc(-n3cc(C(F)(F)F)c4cc(CN5CCC[C@H](C)C5)[nH]c4c3=O)c2)(c2nncn2C)C1 [Compound T093, 6-(3-((1s,3S)-3-ethyl-1-(4-methyl-4H-1,2,4-triazol-3-yl)cyclobutyl)phenyl)-2-(((S)-3-methylpiperidin-1-yl)methyl)-4-(trifluoromethyl)-1,6-dihydro-7H-pyrrolo[2,3-c]pyridin-7-one]	<500 nM	< 50 nM
Cn1cnnc1C1(c2cccc(-n3cc(C(F)(F)F)c4cc(CNCCOC(F)(F)F)[nH]c4c3=O)c2)CCC1 [Compound T096, 6-[3-[1-(4-methyl-1,2,4-triazol-3-yl)cyclobutyl]phenyl]-2-[[2-(trifluoromethoxy)ethylamino]methyl]-4-(trifluoromethyl)-1H-pyrrolo[2,3-c]pyridin-7-one]	<500 nM	< 50 nM
Cn1cnnc1C1(c2cccc(-n3cc(C(F)(F)F)c4cc(CNCCOC5CCCC5)[nH]c4c3=O)c2)CCC1 [Compound T097, 2-[[2-(cyclopentoxy)ethylamino]methyl]-6-[3-[1-(4-methyl-1,2,4-triazol-3-yl)cyclobutyl]phenyl]-4-(trifluoromethyl)-1H-pyrrolo[2,3-c]pyridin-7-one]	<500 nM	< 50 nM
